# Measurements published in US11198741B2, “Medicines for topic use based on sulfated hyaluronic acid as activating or inhibiting agent of the cytokine activity” (Fidia Farmaceutici S.p.A., priority 2009, dated 2021).
# What was measured:
# IL-10 = test: Gene expression of IL-10 in human synoviocytes (PCR Real Time); type: cell-based; conditions: 3 days of treatment, FIG. 1: HAS1 0.5 mg/ml, HAS3 0.1 mg/ml, vs control treated with non-sulfated HA 200 KD
# Experimental: (§1) Human synoviocytes previously expanded in vitro and maintained in a culture at 37° C. with a medium of DMEM containing 10% of FCS, were seeded at a concentration of 20,000 cells per well (synoviocytes are cells capable of producing various types of cytokines, and are therefore normally used for this type of experimental test). […] After 3 days of treatment, the PCR Real Time was effected to evaluate the gene expression of IL-10 and IL-12: the cell RNA was extracted using the “Trizol” method, following the indications of the supplier (TRIZOL reagent, LIFE Technologies, GIBCO BRL). In short, the cells were lysed by the addition of 1.0 ml of Trizol and the total RNA was quantified by measuring its absorbance at 260 nm. The appropriate primers were selected for each gene to be amplified, using the software Primer3 (Roche Molecular Diagnostics, Pleasanton, Calif., USA). The gene expression was evaluated by means of PCR Real Time effected with a Rotor-gene TM5500 (Corbett research, Sydney, Australia). The PCR reactions were effected using primers at […] and SYBR Green (Invitroge, Carlsbad, Calif., USA) at 40 cycles of 15 s at 95° C., and 1 min. at 60° C. The value of “Fluorescence thresholds (Ct)” was automatically determined by the software, evaluating an amplification coefficient for the genes studied between 92 and 110%. […]
# IL-12 = test: Gene expression of IL-12 in human synoviocytes (PCR Real Time); type: cell-based; conditions: 3 days of treatment, FIG. 2: 0.5 mg/ml, vs control treated with non-sulfated HA 200 KD
# Experimental: as §1
# TNF receptor = test: Inhibition of the binding of 125I-TNF to its receptor in U937 cells (Radioligand Binding); parameters: species or system human; conditions: 125I-TNF 0.028 nM, sample 1 mg/ml, 4° C. 3 hours, medium and low MW
# Description: These experiments were effected to evaluate the effectiveness of the samples tested (prepared according to Examples 1-4) on the capacity of inhibiting the binding of TNF to its receptor expressed by cells of the I.S. normally used in vitro for this type of experiment, carried out with iodinated cytokine components for an evaluation in Radioligand Binding assays. The experimental procedure was effected as described in Baglioni C. et al., J Biol Chem, 1985, 260:13395-13397. In short, the line of human histiocytes of the lymphoma U937 was used, with characteristics of monocytes sensitive to the cytotoxic activity of TNF, expressing its relative receptor. […] At the end of the incubation, the cells were centrifuged with dibutylphthalate/dinonylphthalate 2/1 and the pellet obtained was counted in a γ-counter.
# IL-1 receptor = biological target: T1, IL-1 receptor (Mus musculus, UniProt P13504); test: Inhibition of the binding of 125I-IL-1 to its receptor in 3T3 fibroblasts (Radioligand Binding); conditions: 3T3 cells of mouse, 125I-IL-1 10 pM, sample 1 mg/ml, 37° C. 2 hours; both medium and low MW
# T1 construct: the line of murine fibroblasts 3T3 was used, sensitive to the cytotoxic activity of IL-1, expressing its relative receptor; endogenous in cells; host or cells: 3T3 murine fibroblasts (whole cells)
# T1 sequence (P13504 20-576): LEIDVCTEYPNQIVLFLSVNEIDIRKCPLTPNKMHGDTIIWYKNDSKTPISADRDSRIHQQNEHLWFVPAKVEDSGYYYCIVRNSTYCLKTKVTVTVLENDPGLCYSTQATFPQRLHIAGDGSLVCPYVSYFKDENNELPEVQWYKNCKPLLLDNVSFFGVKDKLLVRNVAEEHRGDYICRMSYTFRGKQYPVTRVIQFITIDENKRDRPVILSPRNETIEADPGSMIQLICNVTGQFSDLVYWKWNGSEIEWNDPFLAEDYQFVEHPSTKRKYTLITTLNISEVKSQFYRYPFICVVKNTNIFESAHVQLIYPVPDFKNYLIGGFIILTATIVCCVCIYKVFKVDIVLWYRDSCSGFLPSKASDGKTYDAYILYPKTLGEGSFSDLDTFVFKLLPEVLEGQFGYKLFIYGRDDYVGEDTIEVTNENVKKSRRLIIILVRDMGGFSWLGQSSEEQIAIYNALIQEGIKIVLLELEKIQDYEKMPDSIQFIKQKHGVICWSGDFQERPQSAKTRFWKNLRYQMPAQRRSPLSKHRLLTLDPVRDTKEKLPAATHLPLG
# Description: These experiments were effected to evaluate the effectiveness of the samples tested (prepared according to Examples 1-3 and 4) on the capacity of inhibiting the binding of IL-1 to its receptor expressed by 3T3 cells of mouse, normally used in vitro for this type of experiment, carried out with iodinated cytokine components for an evaluation in Radioligand Binding assays. The experimental procedure was effected as described in Chin J et al., J Exp Med, 1987, 165:70-86. In short, the line of murine fibroblasts 3T3 was used, sensitive to the cytotoxic activity of IL-1, expressing its relative receptor. […] At the end of the incubation, the cells were washed with phosphate buffer, then dissolved in 2.5 M of NaOH and counted in a γ-counter.
# [1] = test system: Herpes Simplex Virus-1 (HSV-1: KOS, F and McIntyre strain); test: Inhibition of viral cytopathogenicity in E6SM fibroblast cells, HSV-1; type: cell-based; conditions: 2nd day of incubation, numbers only in FIG. 10
# [2] = test system: Vesicular stomatitis virus: VSV; type: cell-based
# [3] = test system: Cytomegalovirus (CMV: AD-169 and Davis strain); test: Inhibition of Cytomegalovirus plaque formation in HEL cells; type: cell-based; conditions: numbers only in FIG. 11
# Experimental: The activity of the samples tested was determined by evaluating the inhibition of the cytopathogenicity determined by Cytomegalovirus (CMV: AD-169 and Davis strain) using the previous protocol. The antiviral activity was tested vs HEL cells (pulmonary embryonic cells) and was expressed as the concentration required for inhibiting the number of plaques formed by the above virus by 50%.
# IL-2 = test: Protein synthesis of IL-2 in human PBMC (SearchLight array); conditions: not stimulated or stimulated with LPS or PHA (10 μg/ml), 24 hours, FIG. 6: HAS1 0.1 mg/ml, HAS3 1 mg/ml, vs HA
# Experimental: (§2) For these experimentations, mononucleate cells of human peripheral blood (PBMC) were adopted, deriving from various donors for evaluating the effect of HAS on the production of the cytokines listed above, using:
# (§3) The separation of the PBMC (Bøyum A., Scand J Clin Lab Invest 21 Suppl, 1968, 97:77-89) was effected using the product Ficoll-Paque PLUS (GE Healthcare) and following the protocol indicated by the supplier. At day zero 100,000 cells were plated per well (using plates with 96 wells) in 200 μl of medium RPMI 1640, to which 10% of fetal bovine serum, HEPES 10 mM, Glutamine 2 mM, 1% Penicillin-Streptomycin 100 U/ml, had been added. […] The cells were treated separately with the three compounds at a concentration of 0.1 mg/ml or 1 mg/ml. After 24 hours of incubation at 37° C. (5% CO2), 100 μl of supernatant were taken from each well in order to analyze the production of IL-2, IL-7, IL-10 and IL-12.
# (§4) The quantification of the inflammation mediators was effected by means of the SearchLight® technology, using a Custom Human 9-flex Array plate following the protocol indicated by the supplier in the technical card.
# IL-7 = test: Protein synthesis of IL-7 in human PBMC (SearchLight array); conditions: not stimulated or stimulated with LPS or PHA (10 μg/ml), 24 hours, FIG. 7: 1 mg/ml, vs HA
# Experimental: as §2, §3, §4
substance,measurement,setting,value
sulfated hyaluronic acid degree 3 [HAS3],gene expression of the cytokine IL-10,IL-10,significant increase
same,gene expression of IL-12 (synthesis of its mRNA),IL-12,halving the synthesis of its mRNA
same,inhibition of the binding of TNF to its receptor,TNF receptor,100%
same,inhibition of the binding of IL-1 to its receptor,IL-1 receptor,30%
same,antiviral activity (inhibition of the cytopathogenicity of the virus) vs HSV-1,[1],powerful antiviral action
same,antiviral activity (inhibition of the cytopathogenicity of the virus) vs VSV,[2],very powerful antiviral activity
same,antiviral activity vs Cytomegalovirus (inhibition of the number of plaques),[3],clear and significant positive result
same,synthesis of IL-2,IL-2,significantly reducing
same,synthesis of IL-7,IL-7,significantly reducing
